Measurements taken from the kinase profiling compilation of Christmann-Franck et al. (2016).

Legend:
Test in all cases: radiometric filter-binding kinase assay
[1] = molecular target: SGK1 (human), O00141 [S422D]; conditions: ATP 100 µM; for residual activity: compound 10.0 µM
[2] = system: PHKG1 or PHKG2 (rabbit); conditions: compound 10.0 µM; ATP 100 µM; accession and sequence are those of the human protein
[3] = molecular target: MAPK12 (human) (UniProt P53778); conditions: compound 10.0 µM; ATP 100 µM
[4] = molecular target: MAPK8 (human) (UniProt P45983); conditions: compound 10.0 µM; ATP 100 µM
Sequence of MAPK8 (human) (P45983 whole entry, looked up): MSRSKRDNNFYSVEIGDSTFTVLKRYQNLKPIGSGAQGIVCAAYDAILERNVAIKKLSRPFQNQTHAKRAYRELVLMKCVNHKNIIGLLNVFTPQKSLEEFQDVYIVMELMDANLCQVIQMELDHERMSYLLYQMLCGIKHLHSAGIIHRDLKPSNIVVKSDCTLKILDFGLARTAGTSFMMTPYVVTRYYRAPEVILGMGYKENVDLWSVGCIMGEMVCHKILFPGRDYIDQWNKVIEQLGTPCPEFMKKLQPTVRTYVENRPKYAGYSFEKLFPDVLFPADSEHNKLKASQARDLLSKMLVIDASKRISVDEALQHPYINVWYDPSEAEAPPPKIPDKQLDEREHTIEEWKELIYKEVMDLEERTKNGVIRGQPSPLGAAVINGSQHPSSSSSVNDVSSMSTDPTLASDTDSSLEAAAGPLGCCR

[5] = molecular target: MAPK11 (human) (UniProt Q15759); conditions: compound 10.0 µM; ATP 100 µM
[6] = system: CSNK1A1 (rat); conditions: compound 10.0 µM; ATP 100 µM; accession and sequence are those of the human protein
[7] = molecular target: MAPK13 (human) (UniProt O15264); conditions: compound 10.0 µM; ATP 100 µM
[8] = system: RPS6KB1 (human), P23443 [T412E]; conditions: compound 10.0 µM; ATP 100 µM
[9] = molecular target: GSK3B (human) (UniProt P49841); conditions: compound 10.0 µM; ATP 100 µM
[10] = system: ROCK2 (rat); conditions: compound 10.0 µM; ATP 100 µM; accession and sequence are those of the human protein
[11] = molecular target: MAPK14 (human) (UniProt Q16539); conditions: compound 10.0 µM; ATP 100 µM
Sequence of MAPK14 (human) (Q16539 whole entry, looked up): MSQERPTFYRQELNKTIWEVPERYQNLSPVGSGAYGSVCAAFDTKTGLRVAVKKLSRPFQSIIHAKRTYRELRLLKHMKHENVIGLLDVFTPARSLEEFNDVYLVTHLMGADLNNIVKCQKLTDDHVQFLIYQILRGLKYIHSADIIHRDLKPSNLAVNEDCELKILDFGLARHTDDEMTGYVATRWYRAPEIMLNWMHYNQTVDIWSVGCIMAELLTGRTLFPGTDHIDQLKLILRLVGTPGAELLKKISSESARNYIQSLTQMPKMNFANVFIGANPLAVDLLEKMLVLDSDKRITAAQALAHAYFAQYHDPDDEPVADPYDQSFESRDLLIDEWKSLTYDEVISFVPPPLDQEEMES

[12] = molecular target: CSNK2A1 or CSNK2A2 (human) (UniProt P19784+P68400); conditions: compound 10.0 µM; ATP 100 µM
[13] = molecular target: AKT1 (human) (UniProt P31749); conditions: compound 10.0 µM; ATP 100 µM
Sequence of AKT1 (human) (P31749 whole entry, looked up): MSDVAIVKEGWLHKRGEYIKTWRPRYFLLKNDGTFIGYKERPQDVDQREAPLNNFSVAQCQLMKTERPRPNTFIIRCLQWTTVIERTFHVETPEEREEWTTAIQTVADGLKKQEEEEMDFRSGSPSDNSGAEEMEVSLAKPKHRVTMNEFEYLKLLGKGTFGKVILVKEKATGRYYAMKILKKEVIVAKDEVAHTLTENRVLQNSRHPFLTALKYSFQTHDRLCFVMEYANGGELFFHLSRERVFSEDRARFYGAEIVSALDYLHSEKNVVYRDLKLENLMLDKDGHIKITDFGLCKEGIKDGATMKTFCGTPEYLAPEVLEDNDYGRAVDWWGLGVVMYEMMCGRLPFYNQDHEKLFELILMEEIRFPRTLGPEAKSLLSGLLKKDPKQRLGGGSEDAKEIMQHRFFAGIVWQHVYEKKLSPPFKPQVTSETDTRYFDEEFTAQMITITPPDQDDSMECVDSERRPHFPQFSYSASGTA

[14] = molecular target: PDPK1 (human) (UniProt O15530); conditions: compound 10.0 µM; ATP 100 µM
Sequence of PDPK1 (human) (O15530 whole entry, looked up): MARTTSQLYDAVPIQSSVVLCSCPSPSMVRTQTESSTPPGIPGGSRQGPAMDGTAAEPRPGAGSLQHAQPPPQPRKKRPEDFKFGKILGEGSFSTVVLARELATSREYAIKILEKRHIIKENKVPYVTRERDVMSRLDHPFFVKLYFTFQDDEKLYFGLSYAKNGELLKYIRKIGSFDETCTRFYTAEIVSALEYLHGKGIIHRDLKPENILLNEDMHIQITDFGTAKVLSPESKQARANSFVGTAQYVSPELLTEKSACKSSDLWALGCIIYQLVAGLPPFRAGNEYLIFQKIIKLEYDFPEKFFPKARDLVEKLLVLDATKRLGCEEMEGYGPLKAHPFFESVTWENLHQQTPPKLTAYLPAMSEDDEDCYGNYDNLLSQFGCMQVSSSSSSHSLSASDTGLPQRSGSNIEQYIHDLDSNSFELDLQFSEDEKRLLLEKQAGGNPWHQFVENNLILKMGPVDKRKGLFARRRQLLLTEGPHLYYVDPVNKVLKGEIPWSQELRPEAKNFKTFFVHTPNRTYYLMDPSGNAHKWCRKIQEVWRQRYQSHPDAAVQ

[15] = molecular target: CDK2 CCNA2 (human) (UniProt P24941+P20248); conditions: for residual activity: compound 10.0 µM, ATP 100 µM
Sequence of CDK2 CCNA2 (human) (P20248 whole entry, looked up, other chains not shown): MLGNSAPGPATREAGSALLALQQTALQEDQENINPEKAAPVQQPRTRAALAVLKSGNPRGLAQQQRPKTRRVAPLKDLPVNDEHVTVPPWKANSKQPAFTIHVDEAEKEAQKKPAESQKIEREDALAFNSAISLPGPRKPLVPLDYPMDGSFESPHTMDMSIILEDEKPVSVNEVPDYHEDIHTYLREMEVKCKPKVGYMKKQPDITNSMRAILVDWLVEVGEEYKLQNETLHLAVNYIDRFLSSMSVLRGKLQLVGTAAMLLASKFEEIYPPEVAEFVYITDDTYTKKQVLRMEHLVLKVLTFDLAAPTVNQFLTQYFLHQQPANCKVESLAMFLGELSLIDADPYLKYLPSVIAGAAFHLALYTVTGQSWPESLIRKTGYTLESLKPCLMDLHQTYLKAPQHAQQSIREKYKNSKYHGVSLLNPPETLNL

[16] = system: DYRK1A (rat); conditions: ATP 100 µM, accession and sequence are those of the human protein; for residual activity: compound 10.0 µM
[17] = molecular target: PRKCA (human) (UniProt P17252); conditions: compound 10.0 µM; ATP 100 µM
[18] = system: MAP2K1 (rabbit); conditions: compound 10.0 µM; ATP 100 µM; accession and sequence are those of the human protein
[19] = molecular target: RPS6KA5 KD1 KD2 (human) (UniProt O75582); conditions: compound 10.0 µM; ATP 100 µM
Sequence of RPS6KA5 KD1 KD2 (human) (O75582 whole entry, looked up): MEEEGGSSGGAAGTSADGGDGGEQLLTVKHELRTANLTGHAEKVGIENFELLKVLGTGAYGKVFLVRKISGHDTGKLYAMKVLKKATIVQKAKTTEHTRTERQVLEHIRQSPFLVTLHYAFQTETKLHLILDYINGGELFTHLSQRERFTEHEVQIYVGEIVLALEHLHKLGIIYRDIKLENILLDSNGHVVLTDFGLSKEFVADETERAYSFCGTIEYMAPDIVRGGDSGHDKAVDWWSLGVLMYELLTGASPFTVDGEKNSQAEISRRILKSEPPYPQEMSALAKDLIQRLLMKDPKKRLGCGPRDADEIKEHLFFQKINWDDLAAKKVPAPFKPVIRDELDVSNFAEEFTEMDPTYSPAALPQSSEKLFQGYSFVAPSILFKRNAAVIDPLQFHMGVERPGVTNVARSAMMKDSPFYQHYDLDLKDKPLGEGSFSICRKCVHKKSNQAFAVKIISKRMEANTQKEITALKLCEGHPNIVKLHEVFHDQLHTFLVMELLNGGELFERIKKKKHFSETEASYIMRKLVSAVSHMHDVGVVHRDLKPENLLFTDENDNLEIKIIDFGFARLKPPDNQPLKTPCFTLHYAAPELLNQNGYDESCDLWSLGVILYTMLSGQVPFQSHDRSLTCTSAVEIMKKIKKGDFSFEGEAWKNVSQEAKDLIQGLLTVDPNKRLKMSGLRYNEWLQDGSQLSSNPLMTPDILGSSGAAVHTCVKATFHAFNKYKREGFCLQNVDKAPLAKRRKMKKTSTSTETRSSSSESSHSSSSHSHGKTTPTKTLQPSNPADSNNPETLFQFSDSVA

[20] = molecular target: CHEK1 (human) (UniProt O14757); conditions: compound 10.0 µM; ATP 100 µM
[21] = system: MAPK1 (mouse); conditions: compound 10.0 µM; ATP 100 µM; accession and sequence are those of the human protein
[22] = molecular target: LCK (human) (UniProt P06239); conditions: ATP 100 µM; for residual activity: compound 10.0 µM
Sequence of LCK (human) (P06239 whole entry, looked up): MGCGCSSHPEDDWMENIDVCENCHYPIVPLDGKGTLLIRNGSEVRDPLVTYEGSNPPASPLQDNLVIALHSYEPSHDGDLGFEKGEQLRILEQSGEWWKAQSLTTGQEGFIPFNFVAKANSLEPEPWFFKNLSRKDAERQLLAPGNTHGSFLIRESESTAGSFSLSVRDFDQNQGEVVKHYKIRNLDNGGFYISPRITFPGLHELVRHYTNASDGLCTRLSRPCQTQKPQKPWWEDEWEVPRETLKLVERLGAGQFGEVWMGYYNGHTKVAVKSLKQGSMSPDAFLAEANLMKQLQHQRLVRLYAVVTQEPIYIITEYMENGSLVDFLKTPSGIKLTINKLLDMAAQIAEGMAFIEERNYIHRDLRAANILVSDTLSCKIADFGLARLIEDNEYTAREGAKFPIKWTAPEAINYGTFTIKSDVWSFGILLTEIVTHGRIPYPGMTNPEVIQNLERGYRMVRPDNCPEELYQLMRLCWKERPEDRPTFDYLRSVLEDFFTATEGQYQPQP

[23] = molecular target: PRKAA1 or PRKAA2 (rat); conditions: ATP 100 µM, accession and sequence are those of the human protein; for residual activity: compound 10.0 µM
[24] = molecular target: MAPKAPK2 (human) (UniProt P49137); conditions: compound 10.0 µM; ATP 100 µM
Sequence of MAPKAPK2 (human) (P49137 whole entry, looked up): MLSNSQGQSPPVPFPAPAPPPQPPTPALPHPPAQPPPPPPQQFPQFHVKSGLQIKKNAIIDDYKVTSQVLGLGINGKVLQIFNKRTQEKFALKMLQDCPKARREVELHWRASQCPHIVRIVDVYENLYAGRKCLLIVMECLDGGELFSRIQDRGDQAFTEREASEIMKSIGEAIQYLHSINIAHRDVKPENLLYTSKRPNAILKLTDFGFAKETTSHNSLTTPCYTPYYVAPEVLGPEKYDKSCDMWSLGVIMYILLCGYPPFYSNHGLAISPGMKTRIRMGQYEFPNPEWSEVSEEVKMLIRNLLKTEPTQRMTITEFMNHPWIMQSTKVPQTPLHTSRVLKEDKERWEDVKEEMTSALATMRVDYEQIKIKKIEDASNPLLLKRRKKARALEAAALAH

[25] = system: RPS6KA1 (rat); conditions: compound 10.0 µM; ATP 100 µM; accession and sequence are those of the human protein
[26] = molecular target: MAPKAPK5 (human) (UniProt Q8IW41); conditions: ATP 100 µM; for residual activity: compound 10.0 µM
Sequence of MAPKAPK5 (human) (Q8IW41 whole entry, looked up): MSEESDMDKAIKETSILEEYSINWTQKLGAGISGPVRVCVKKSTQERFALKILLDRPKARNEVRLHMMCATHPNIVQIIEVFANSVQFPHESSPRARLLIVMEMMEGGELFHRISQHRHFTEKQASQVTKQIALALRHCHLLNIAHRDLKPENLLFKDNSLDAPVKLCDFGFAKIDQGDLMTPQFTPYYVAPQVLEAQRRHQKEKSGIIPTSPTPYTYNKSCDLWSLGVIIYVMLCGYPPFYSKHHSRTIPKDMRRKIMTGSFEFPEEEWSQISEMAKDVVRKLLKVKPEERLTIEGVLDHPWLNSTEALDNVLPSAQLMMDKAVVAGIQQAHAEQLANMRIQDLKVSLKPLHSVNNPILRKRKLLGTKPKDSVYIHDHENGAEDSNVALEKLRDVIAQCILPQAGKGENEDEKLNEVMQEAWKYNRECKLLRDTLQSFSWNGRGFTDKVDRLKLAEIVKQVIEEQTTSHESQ

[27] = system: PRKACA or PRKACB (cow); conditions: compound 10.0 µM; accession and sequence are those of the human protein
[28] = molecular target: CSK (human) (UniProt P41240); conditions: compound 10.0 µM; ATP 100 µM

Sequence of SGK1 (human), O00141 [S422D] (O00141 whole entry S422D, looked up): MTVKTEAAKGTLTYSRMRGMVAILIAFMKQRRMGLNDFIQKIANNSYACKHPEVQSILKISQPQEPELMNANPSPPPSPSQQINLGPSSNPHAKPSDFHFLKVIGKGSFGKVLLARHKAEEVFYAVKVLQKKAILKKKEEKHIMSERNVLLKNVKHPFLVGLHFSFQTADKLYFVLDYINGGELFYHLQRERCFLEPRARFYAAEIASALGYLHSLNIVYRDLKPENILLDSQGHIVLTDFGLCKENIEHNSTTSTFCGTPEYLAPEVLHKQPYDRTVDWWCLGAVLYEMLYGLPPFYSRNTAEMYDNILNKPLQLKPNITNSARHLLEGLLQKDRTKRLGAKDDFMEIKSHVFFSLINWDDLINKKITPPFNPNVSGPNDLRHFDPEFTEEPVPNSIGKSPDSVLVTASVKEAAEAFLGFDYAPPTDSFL

| residual activity [1] | residual activity [2] | residual activity [3] | residual activity [4] | residual activity [5] | residual activity [6] | residual activity [7] | residual activity [8] | residual activity [9] | residual activity [10] | residual activity [11] | residual activity [12] | residual activity [13] | residual activity [14] | residual activity [15] | residual activity [16] | residual activity [17] | residual activity [18] | residual activity [19] | residual activity [20] | further results | Compound |
| --- | --- | --- | --- | --- | --- | --- | --- | --- | --- | --- | --- | --- | --- | --- | --- | --- | --- | --- | --- | --- | --- |
| 9% | 102% | 74% | 21% | 45% | 38% | 65% | 20% | 6% | 15% | 83% | 82% | 62% | 27% | 18% | 62% | 68% | 94% | 40% | 38% | IC50 [1]: 380 nM; IC50 [15]: 590 nM; residual activity [21]: 104%; IC50 [22]: 300 nM; residual activity [22]: 11%; IC50 [23]: 220 nM; residual activity [23]: 6%; residual activity [24]: 69%; residual activity [25]: 20%; residual activity [26]: 38%; residual activity [27]: 80%; residual activity [28]: 105% | O=C1Nc2ccccc2/C1=C1\Nc2ccccc2\C1=N/O |
| 104% | 78% | 85% | 76% | 87% | 105% | 60% | 87% | 78% | 53% | 105% | 105% | 87% | 50% | 97% | 9% | 76% | 94% | 88% | 79% | IC50 [16]: 330 nM; residual activity [21]: 53%; residual activity [22]: 89%; residual activity [23]: 101%; residual activity [24]: 79%; residual activity [25]: 109%; IC50 [26]: 1000 nM; residual activity [26]: 10%; residual activity [27]: 109%; residual activity [28]: 76% | O=C(O[C@@H]1Cc2c(O)cc(O)cc2O[C@@H]1c1cc(O)c(O)c(O)c1)c1cc(O)c(O)c(O)c1 |
